Structures can show the parent of a compound that is named as a salt. Where two headings read alike, the source gives them in different places.
How the values were obtained:
[1] = system: mice; experiment: animal or person; type: in vivo; details: mouse tail flick test; for ED50 / analgesic activity (in words): sc; for ED50 / ED50 (μg/kg, sc): subcutaneous application; for ED50: read-out: ED50 (μg/kg, sc)
[2] = system: mice; experiment: Hot-plate test (analgesia); type: in vivo, mouse; details: for ED50: Mus musculus, read-out: ED50 (μg/kg, sc); for ED50 / analgesic activity (in words): sc; for ED50 / ED50 (μg/kg, sc): subcutaneous application
Procedure: A test on mice (“hot-plate test”) was carried out as described earlier (E. L. May et al., J. Med. Chem. 2000; 43, 5030-5036).

[3] = system: rats; experiment: Rat tail flick test (analgesia); type: in vivo; details: for ED50 (μg/rat, icv): rats of 120 g; for ED50: sc, read-out: ED50 (μg/kg, sc)
Procedure: To determine the analgesic activity of quaternised compounds, a test on rats, the “Rat Tail Flick Test”, was used. The test was carried out as described earlier (Zs. Fürst et al., Eur. J. Pharmacol. 1993; 236: 209-215).

[4] = target: T1, μ-opioid receptors (Rattus norvegicus, UniProt P33535); experiment: Opioid receptor binding studies on rat's brain homogenisates with [3H]DAMGO
T1 construct: from tissue; host or cells: rat brain homogenate
T1 sequence (P33535 whole entry): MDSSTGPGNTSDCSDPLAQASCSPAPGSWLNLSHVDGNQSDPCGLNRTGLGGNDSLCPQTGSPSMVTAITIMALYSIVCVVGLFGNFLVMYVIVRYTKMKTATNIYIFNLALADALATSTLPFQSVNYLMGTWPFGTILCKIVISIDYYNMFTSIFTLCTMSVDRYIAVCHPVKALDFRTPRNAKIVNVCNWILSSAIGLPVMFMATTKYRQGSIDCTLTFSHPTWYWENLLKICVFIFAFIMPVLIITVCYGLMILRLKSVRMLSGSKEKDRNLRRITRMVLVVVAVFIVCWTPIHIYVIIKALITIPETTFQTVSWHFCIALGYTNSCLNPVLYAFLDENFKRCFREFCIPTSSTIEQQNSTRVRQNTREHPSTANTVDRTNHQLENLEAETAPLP

[5] = target: T2, μ-receptors (Mus musculus, UniProt P42866); experiment: Antagonistic activity in the vas deferens preparation of the mouse using DAMGO; type: biochemical; parameters: Ke (vM) (μ-receptors): unit not given here
T2 construct: Vas Deferens Preparation of the Mouse; from tissue; host or cells: mouse vas deferens
T2 sequence (P42866 whole entry): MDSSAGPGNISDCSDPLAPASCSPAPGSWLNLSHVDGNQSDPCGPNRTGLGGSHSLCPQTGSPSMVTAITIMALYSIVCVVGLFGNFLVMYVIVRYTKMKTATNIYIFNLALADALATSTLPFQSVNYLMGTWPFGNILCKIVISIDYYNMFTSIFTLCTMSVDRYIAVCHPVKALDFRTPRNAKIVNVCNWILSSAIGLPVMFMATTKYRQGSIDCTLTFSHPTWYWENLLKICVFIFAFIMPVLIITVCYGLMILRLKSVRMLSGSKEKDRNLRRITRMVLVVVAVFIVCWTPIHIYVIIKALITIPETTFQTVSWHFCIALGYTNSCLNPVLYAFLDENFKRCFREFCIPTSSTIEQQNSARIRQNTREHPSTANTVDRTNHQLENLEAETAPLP

[6] = rat tail flick test, subcutaneous application
[7] = [3H]DAMGO as radio-ligand, rat's brain homogenisates, read-out: Ki (nM) (μ-receptors)
[8] = rat tail flick test, intracerebroventricular application

O=C1CC[C@@]2(OCCCc3ccccc3)[C@H]3Cc4ccc(O)c5c4[C@@]2(CCN3CC2CCC2)[C@H]1O5 [Compound 7, 17-cyclobutylmethyl-4,5α-epoxy-3-hydroxy-14β-(3-phenylpropyloxy)morphinan-6-one hydrochloride]
ED50 [1]: 8.2 µg/kg | ED50 [2]: 3.7 µg/kg

CO[C@@]12CCC(=O)[C@]3(C)Oc4c(O)ccc5c4[C@@]31CCN(C)[C@@H]2C5 [14-methoxymetopon, reference compound]
ED50 (μg/kg, sc) [1]: 30 µg/kg | ED50 (μg/kg, sc) [2]: 30 µg/kg | ED50 (μg/kg, sc) [3, 6]: 7.2 µg/kg | Ki [4, 7]: 0.55 nM

C=CCN1CC[C@]23c4c5ccc(O)c4O[C@H]2C(=O)CC[C@@]3(OCCCc2ccccc2)[C@H]1C5 [Compound 6, 17-allyl-4,5α-epoxy-3-hydroxy-14β-(3-phenylpropyloxy)morphinan-6-one hydrochloride]
ED50 [1]: 5.6 µg/kg | ED50 [2]: 5.9 µg/kg

COc1ccc2c(c1OC)[C@]13CCN(C)[C@H](C2)[C@]1(OCCCc1ccccc1)CCC(=O)[C@H]3C [Compound 32, 3,4-dimethoxy-5β,17-dimethyl-14β-[(3-phenylpropyl)oxy]morphinan-6-one hydrochloride]
analgesic activity (in words) [1]: very high analgesic activity | ED50 [1]: 14 µg/kg | ED50 [2]: 22 µg/kg | analgesic activity (in words) [2]: somewhat lower analgesic activity

C[N@+]1(CC2CC2)CC[C@]23c4c5ccc(O)c4O[C@H]2C(=O)CC[C@@]3(OCCCc2ccccc2)[C@H]1C5.[I-] [Compound 48, (17R)-17-cyclopropylmethyl-4,5α-epoxy-3-hydroxy-17-methyl-6-oxo-14β-[(3-phenylpropyl)oxy]morphinanium-iodide]
melting point: 175 to 176 °C | antagonistic activity to μ-opioid receptors (in words) ([5]; DAMGO): very high antagonistic activity | Ki [4]: 0.93 nM

O=C1CC[C@@]2(OCCCc3ccccc3)C3Cc4ccc(O)c5c4[C@@]2(CCN3CC2CCCO2)[C@H]1O5 (stereo partly drawn) [Compound 10, 4,5α-epoxy-17-[2-((R,S)-tetrahydrofuran-2-yl)methyl]-3-hydroxy-14β-(3-phenylpropyloxy)morphinan-6-one hydrochloride]
ED50 [1]: 7 µg/kg | ED50 [2]: 1.3 µg/kg

C=CC[N@@+]1(C)CC[C@]23c4c5ccc(O)c4O[C@H]2C(=O)CC[C@@]3(OC)[C@H]1C5.[I-] [Compound 42, (17R)-17-allyl-4,5α-epoxy-3-hydroxy-14β-methoxy-17-methyl-6-oxomorphinanium-iodide]
melting point: 178 to 181 °C | ability to overcome the blood-brain barrier ([3]; inferred from icv versus sc activity): only to a limited degree | analgesic activity (in words) [3, 8]: extremely active | ED50 (μg/rat, icv) [3, 8]: 0.22 μg/rat | analgesic effect (in words) [3, 6]: very high analgesic effect | ED50 [3, 6]: 16 µg/kg | Ki [4]: 5.93 nM

CCCN1CC[C@]23c4c5ccc(O)c4O[C@H]2C(=O)CC[C@@]3(OCCCc2ccccc2)[C@H]1C5 [Compound 11, 4,5α-epoxy-3-hydroxy-14β-(3-phenylpropyloxy)-17-propylmorphinan-6-one hydrochloride]
ED50 [1]: 1.6 µg/kg | ED50 [2]: 1.7 µg/kg

O=C1CC[C@@]2(OCCCc3ccccc3)[C@H]3Cc4ccc(O)c5c4[C@@]2(CCN3CC2CC2)[C@H]1O5 [Compound 8, 17-cyclopropylmethyl-4,5α-epoxy-3-hydroxy-14β-(3-phenylpropyloxy)morphinan-6-one hydrochloride]
ED50 [1]: 3.2 µg/kg | ED50 [2]: 2.3 µg/kg | Ki [4, 7]: 0.34 nM

C#CCOc1ccc2c3c1O[C@@]1(C)C(=O)CC[C@@]4(OCCCc5ccccc5)[C@@H](C2)N(C)CC[C@]314.Cl [Compound 17, 4,5α-epoxy-5β,17-dimethyl-14β-[(3-phenylpropyl)oxy]-3-[(prop-2-inyl)oxy]morphinan-6-one hydrochloride]
ED50 (μg/kg, sc) [1]: 21 µg/kg | analgesic activity (in words) [2]: surprisingly high | ED50 (μg/kg, sc) [2]: 38 µg/kg | Ki [4, 7]: 0.73 nM

C[N+]1(C)CC[C@]23c4c5ccc(O)c4O[C@H]2C(=O)CC[C@@]3(OCCCc2ccccc2)[C@H]1C5.[I-] [Compound 38, 4,5α-epoxy-3-hydroxy-17,17-dimethyl-6-oxo-14β-[(3-phenylpropyl)oxy]morphinanium-iodide]
melting point: 164 to 170 °C | ED50 (μg/rat, icv) [3, 8]: 12 μg/rat | analgesic effect (in words) [3, 6]: very high analgesic effect | ED50 [3, 6]: 120 µg/kg | Ki [4]: 4.11 nM

CN1CC[C@]23c4c5ccc(O)c4O[C@@]2(C)C(=O)CC[C@@]3(OCCCc2ccccc2)[C@H]1C5 [Compound 17b, 4,5α-epoxy-3-hydroxy-5β,17-dimethyl-14β-[(3-phenylpropyl)oxy]morphinan-6-one hydrobromide]
ED50 [2]: 0.1 µg/kg | Ki [4]: 0.2 nM

COc1ccc2c3c1O[C@@]1(C)C(=O)CC[C@@]4(OCCCc5ccccc5)[C@@H](C2)N(C)CC[C@]314 [Compound 17a, 4,5α-epoxy-3-methoxy-5β,17-dimethyl-14β-[(3-phenylpropyl)oxy]morphinan-6-one]
ED50 [1]: 4.4 µg/kg | ED50 [2]: 2.6 µg/kg | melting point: 126 to 128 °C | Ki [4]: 0.62 nM

COc1ccc2c3c1O[C@H]1C(=O)CC[C@@]4(OCCCc5ccccc5)[C@@H](C2)N(CCc2ccccc2)CC[C@]314 [Compound 4, 4,5α-epoxy-3-methoxy-17-(2-phenylethyl)-14β-(3-phenylpropyloxy)morphinan-6-one hydrochloride]
analgesic activity (in words) [1]: somewhat lower analgesic activity | ED50 [1]: 84 µg/kg | ED50 [2]: 60 µg/kg | analgesic activity (in words) [2]: somewhat lower analgesic activity

COc1c(O)ccc2c1[C@]13CCN(CC4CC4)[C@H](C2)[C@]1(OC)CCC(=O)C3 [3-hydroxycyprodime, reference compound]
Ke (vM) (μ-receptors) ([5]; antagonistic Ke against DAMGO): 5.62 | Ki [4, 7]: 6.15 nM | affinity to μ-opioid receptors (in words) ([4]; [3H]DAMGO, rat's brain homogenisates): clearly lower affinity

CN1CC[C@]23c4c5ccc(O)c4O[C@H]2[C@@H](O)C=C[C@H]3[C@H]1C5 [Morphine, reference compound]
ED50 [3, 6]: 1900 µg/kg

CN1CC[C@]23c4c5cccc4O[C@H]2C(=O)CC[C@@]3(OCCCc2ccccc2)[C@H]1C5 [Compound 53, 4,5α-epoxy-17-methyl-14β-[(3-phenylpropyl)oxy]morphinan-6-one]
ED50 [1]: 0.4 µg/kg | ED50 [2]: 3 µg/kg | melting point: 105 to 109 °C

Source: patent US7655671B2, “Morphinan derivatives, the quaternary ammonium salts thereof substituted in position 14, method for production and use thereof” (priority 2002, dated 2010)
